Assay results: ChEMBL document CHEMBL4828726, “Modification of 5-methylphenanthridium from benzothiazoles to indoles as potent FtsZ inhibitors: Broadening the antibacterial spectrum toward vancomycin-resistant enterococci” (Eur J Med Chem, 2021)
Values after ≈ are worked out from the molar mass of the structure shown. Active and inactive are the calls of the source. The rule behind the calls is not given here.

How the values were obtained:
[1] = test system: Bacillus subtilis; assay: Bactericidal activity against penicillin-susceptible Bacillus subtilis ATCC 9372 assessed as inhibition of bacterial growth measured after 20 hrs by two-fold microdilution assay; type: functional
[2] = test system: Enterococcus faecalis; assay: Bactericidal activity against Vancomycin-resistant Enterococcus faecalis ATCC 51299 assessed as inhibition of bacterial growth measured after 20 hrs by two-fold microdilution assay; type: functional
[3] = test system: Enterococcus faecium; assay: Antibacterial activity against Vancomycin-susceptible Enterococcus faecium ATCC 19434 assessed as inhibition of bacterial growth measured after 20 hrs by two-fold microdilution assay; type: functional
[4] = test system: Enterococcus faecium; assay: Bactericidal activity against Vancomycin-susceptible Enterococcus faecium ATCC 19434 assessed as inhibition of bacterial growth measured after 20 hrs by two-fold microdilution assay; type: functional
[5] = test system: Staphylococcus aureus; assay: Antibacterial activity against Staphylococcus aureus ATCC 25923 assessed as decrease of bacterial growth at 32 ug/ml measured up to 24 hrs by Time kill assay; type: functional, organism-based; conditions: dose 32.0 µg/ml, time hrs <=24
[6] = test system: Staphylococcus aureus; assay: Bactericidal activity against erythromycin-susceptible Staphylococcus aureus ATCC 25923 assessed as inhibition of bacterial growth measured after 20 hrs by two-fold microdilution assay; type: functional
[7] = test system: Pseudomonas aeruginosa; assay: Antibacterial activity against penicillin-susceptible Pseudomonas aeruginosa ATCC 27853 assessed as inhibition of bacterial growth measured after 20 hrs by two-fold microdilution assay; type: functional
[8] = target: T1, Cell division protein FtsZ (Bacillus subtilis (strain 168)) (UniProt P17865); assay: Inhibition of Bacillus subtilis FtsZ assessed as promotion of FtsZ polymerization at 10 ug/ml measured after […] by fluorescence spectrometer based light scattering assay; conditions: dose 10.0 µg/ml
T1 sequence (whole entry): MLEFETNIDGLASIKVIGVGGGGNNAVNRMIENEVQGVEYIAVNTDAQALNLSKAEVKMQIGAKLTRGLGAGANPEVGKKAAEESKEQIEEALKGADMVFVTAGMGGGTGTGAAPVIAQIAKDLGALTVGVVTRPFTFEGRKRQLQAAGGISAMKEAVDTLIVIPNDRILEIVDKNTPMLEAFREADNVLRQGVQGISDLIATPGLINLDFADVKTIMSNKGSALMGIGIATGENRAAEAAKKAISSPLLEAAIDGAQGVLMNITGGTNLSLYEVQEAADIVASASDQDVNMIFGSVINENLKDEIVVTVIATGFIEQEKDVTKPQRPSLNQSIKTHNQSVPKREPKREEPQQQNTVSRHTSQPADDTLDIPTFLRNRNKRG

[9] = test system: Staphylococcus aureus; assay: Bactericidal activity against methicillin-resistant Staphylococcus aureus ATCC43300 assessed as inhibition of bacterial growth measured after 20 hrs by two-fold microdilution assay; type: functional
[10] = test system: Bacillus pumilus; assay: Antibacterial activity against penicillin-susceptible Bacillus pumilus CMCC63202 assessed as inhibition of bacterial growth measured after 20 hrs by two-fold microdilution assay; type: functional
[11] = test system: Bacillus pumilus; assay: Bactericidal activity against penicillin-susceptible Bacillus pumilus CMCC63202 assessed as inhibition of bacterial growth measured after 20 hrs by two-fold microdilution assay; type: functional
[12] = test system: Enterococcus faecalis; assay: Bactericidal activity against Vancomycin-susceptible Enterococcus faecalis ATCC 29212 assessed as inhibition of bacterial growth measured after 20 hrs by two-fold microdilution assay; type: functional
[13] = test system: Staphylococcus aureus; assay: Bactericidal activity against penicillin-resistant Staphylococcus aureus ATCC 31007 assessed as inhibition of bacterial growth measured after 20 hrs by two-fold microdilution assay; type: functional
[14] = test system: Staphylococcus epidermidis; assay: Antibacterial activity against penicillin-resistant Staphylococcus epidermidis assessed as inhibition of bacterial growth measured after 20 hrs by two-fold microdilution assay; type: functional
[15] = test system: Enterococcus faecium; assay: Bactericidal activity against Vancomycin-resistant Enterococcus faecium ATCC 51559 assessed as inhibition of bacterial growth measured after 20 hrs by two-fold microdilution assay; type: functional
[16] = test system: Bacillus subtilis; assay: Antibacterial activity against penicillin-susceptible Bacillus subtilis ATCC 9372 assessed as inhibition of bacterial growth measured after 20 hrs by two-fold microdilution assay; type: functional
[17] = test system: Escherichia coli; assay: Antibacterial activity against penicillin-susceptible Escherichia coli ATCC 25922 assessed as inhibition of bacterial growth measured after 20 hrs by two-fold microdilution assay; type: functional
[18] = test system: Enterococcus faecium; assay: Antibacterial activity against Vancomycin-resistant Enterococcus faecium ATCC 51559 assessed as inhibition of bacterial growth measured after 20 hrs by two-fold microdilution assay; type: functional
[19] = test system: Streptococcus pyogenes; assay: Antibacterial activity against erythromycin-susceptible Streptococcus pyogenes assessed as inhibition of bacterial growth measured after 20 hrs by two-fold microdilution assay; type: functional
[20] = test system: Streptococcus pyogenes; assay: Antibacterial activity against erythromycin-resistant Streptococcus pyogenes assessed as inhibition of bacterial growth measured after 20 hrs by two-fold microdilution assay; type: functional
[21] = test system: Staphylococcus aureus; assay: Antibacterial activity against erythromycin-susceptible Staphylococcus aureus ATCC 25923 assessed as inhibition of bacterial growth measured after 20 hrs by two-fold microdilution assay; type: functional
[22] = test system: Staphylococcus aureus; assay: Antibacterial activity against Staphylococcus aureus ATCC 25923 assessed as fold increase in MIC value measured after 10 passages by Multi passage resistance assay; type: functional, organism-based
[23] = test system: Bacillus subtilis; assay: Ratio of MBC to MIC against penicillin-susceptible Bacillus subtilis ATCC 9372; type: functional
[24] = test system: Enterococcus faecalis; assay: Antibacterial activity against Vancomycin-resistant Enterococcus faecalis ATCC 51299 assessed as inhibition of bacterial growth measured after 20 hrs by two-fold microdilution assay; type: functional
[25] = test system: Staphylococcus aureus; assay: Antibacterial activity against methicillin-resistant Staphylococcus aureus ATCC43300 assessed as inhibition of bacterial growth measured after 20 hrs by two-fold microdilution assay; type: functional
[26] = test system: Staphylococcus aureus; assay: Antibacterial activity against clinical isolate Staphylococcus aureus C1 assessed as inhibition of bacterial growth measured after 20 hrs by two-fold microdilution assay; type: functional
[27] = test system: Staphylococcus aureus; assay: Ratio of MBC to MIC against erythromycin-susceptible Staphylococcus aureus ATCC 25923; type: functional
[28] = test system: Staphylococcus aureus; assay: Antibacterial activity against Staphylococcus aureus ATCC 25923 assessed as fold change in MIC value measured after 14 passages by Multi passage resistance assay; type: functional, organism-based
[29] = test system: Enterococcus faecalis; assay: Antibacterial activity against Vancomycin-susceptible Enterococcus faecalis ATCC 29212 assessed as inhibition of bacterial growth measured after 20 hrs by two-fold microdilution assay; type: functional
[30] = test system: Staphylococcus aureus; assay: Antibacterial activity against Staphylococcus aureus ATCC 25923 assessed as reduction of colony forming units at 32 ug/ml measured up to 24 hrs by Time kill assay; type: functional; set-up: scale not given: the % may be the effect or the level left; conditions: dose 32 µg/ml; time hrs <=24
[31] = test system: Staphylococcus aureus; assay: Ratio of MBC to MIC against methicilline-resistant Staphylococcus aureus ATCC43300; type: functional
[32] = Hemolytic activity against mouse RBC at 1 to 16 ug/ml measured after 1 hr by hemolysis assay relative to Triton X-100; type: ADME, cell-based, Erythrocyte; conditions: mouse red blood cells (erythrocytes), at 1 to 16 µg/mL, dose 1-16 µg/ml, read-out: Activity
[33] = test system: Staphylococcus aureus; assay: Antibacterial activity against penicillin-resistant Staphylococcus aureus ATCC 31007 assessed as inhibition of bacterial growth measured after 20 hrs by two-fold microdilution assay; type: functional
[34] = test system: Pseudomonas aeruginosa; assay: Anti-biofilm activity against Pseudomonas aeruginosa ATCC 27853 assessed as inhibition of biofilm formation at 4 to 64 ug/ml measured after 20 hrs by crystal violet staining based biofilm formation inhibition assay; type: functional, organism-based; conditions: dose 4-64 µg/ml
[35] = test system: Staphylococcus aureus; assay: Antibacterial activity against Staphylococcus aureus ATCC 25923 assessed as decrease of bacterial growth measured up to 24 hrs by Time kill assay; type: functional, organism-based; conditions: dose 4-32 µg/ml, time hrs <=24
[36] = test system: Staphylococcus aureus; assay: Antibacterial activity against Staphylococcus aureus ATCC 25923 assessed as fold increase in MIC value measured after 1 passage by Multi passage resistance assay; type: functional
[37] = test system: Staphylococcus aureus; assay: Antibacterial activity against Staphylococcus aureus ATCC 25923 assessed as fold increase in MIC value measured after 15 passages by Multi passage resistance assay; type: functional

SMILES | MBC [1] [µg/mL] | MIC [3] [µg/mL] | MBC [6] [µg/mL] | MIC [7] [µg/mL] | MBC [9] [µg/mL] | MIC [10] [µg/mL] | MBC [11] [µg/mL] | MBC [13] [µg/mL] | MIC [14] [µg/mL] | MIC [16] [µg/mL] | MIC [17] [µg/mL] | MIC [18] [µg/mL] | MIC [19] [µg/mL] | MIC [20] [µg/mL] | fold change (FC) [36] | further results
CC(=O)NC[C@H]1CN(c2ccc(N3CCOCC3)c(F)c2)C(=O)O1 [LINEZOLID] | 64 (≈ 190 µM) | 4 (≈ 11.9 µM) | 128 (≈ 379 µM) | > 64 | 8 (≈ 23.7 µM) | 2 (≈ 5.93 µM) | 16 (≈ 47.4 µM) | 16 (≈ 47.4 µM) | 4 (≈ 11.9 µM) | 0.5 (≈ 1.48 µM) | > 64 | 4 (≈ 11.9 µM) | 1 (≈ 2.96 µM) | 1 (≈ 2.96 µM) |  | MBC [2]: 64 µg/mL (≈ 190 µM); MBC [4]: > 64 µg/mL; Activity [5]: Active; inhibition [8]: inactive; MBC [12]: 64 µg/mL (≈ 190 µM); MBC [15]: 64 µg/mL (≈ 190 µM)
CCCCn1ccc2ccc(-c3ccc4c(c3)c3c(C)cccc3c[n+]4C)cc21.[Cl-] | 8 | 8 | 16 | > 64 | 64 | 8 | > 64 | > 64 | 16 | 4 | > 64 | 8 | 16 | 16 | 4 | MIC [21]: 1 µg/mL; Activity [22]: Active; Ratio [23]: 2; MIC [24]: 16 µg/mL; MIC [25]: 8 µg/mL; MIC [26]: 4 µg/mL; Ratio [27]: 16; Activity [28]: Active; MIC [29]: 8 µg/mL; Activity [30]: >99.9%; Ratio [31]: 8; hemolysis at 1 h [32]: < 8%; MIC [33]: 8 µg/mL; Activity [34]: inactive; Activity [35]: Dose-Dependent Effect
CO[C@H]1/C=C/O[C@@]2(C)Oc3c(C)c(O)c4c(O)c(c(/C=N/N5CCN(C)CC5)c(O)c4c3C2=O)NC(=O)/C(C)=C\C=C\[C@H](C)[C@H](O)[C@@H](C)[C@@H](O)[C@@H](C)[C@H](OC(C)=O)[C@@H]1C [RIFAMPIN] |  |  |  |  |  |  |  |  |  |  |  |  |  |  | 8 | fold change (FC) [37]: >16000
